Source: patent US10160732B2, “MIF inhibitors” (MIFCARE, priority 2014, dated 2018)

Target: T1, recombinant human MIF (Homo sapiens, UniProt P14174)
T1 construct: purchased RayBiotech
T1 sequence (P14174 2-115 limits assumed): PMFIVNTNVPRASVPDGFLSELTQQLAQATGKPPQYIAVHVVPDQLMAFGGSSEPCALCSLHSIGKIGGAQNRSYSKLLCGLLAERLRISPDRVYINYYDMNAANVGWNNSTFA
Assay: MIF tautomerase assay using 4-hydroxyphenylpyruvate (4-HPP)
Type: biochemical
Conditions: compounds tested at 1 nM; 300 ng/mL rhMIF; 4-HPP substrate; compared to positive control with recombinant human MIF alone
Method: Tautomerase activity was assessed using 4-hydroxyphenylpyruvate (4-HPP) as substrate. 4-HPP was dissolved in 50 mM ammonium acetate at pH 6.0, allowed to equilibrate to room temperature and stored at −20° C. 300 ng/mL of recombinant human MIF (rhMIF; RayBiotech, Le Perray en Yvelines, France) and tested compounds were pre-incubated at room temperature for 15 min. Tautomerase activity was assessed at room temperature, by adding 4-HHP to a 96-well plate containing 0.435 M boric acid at pH 6.6 and rhMIF with or without (positive control) tested compounds (1 nM), and by measuring the increase in absorbance at 320 nm over 10-360 s using the 2103 EnVision™ Multilabel Plate Readers (PerkinElmer, Villebon-sur-Yvette, France). Compounds were tested at 1 nM. The assay was replicated 3 times independently.
Compounds 38, 39 and 41 of the present invention were tested and compared to their respective “C═O” isosteres 38-O, 39-O and 41-O. Results are also compared to prototypical MIF inhibitor ISO-1.
Results are presented in table 2 below and represent the percentage of MIF tautomerase activity inhibition as compared to the positive control with recombinant human MIF alone.

Work on `Cc1ccc2oc(=O)n(Cc3ccccc3)c2c1` [Compound 39-O] yielded an inhibition at 0.001 µM of 12%.

`COc1ccccc1Cn1c(=O)oc2ccc(C)cc21` [Compound 41-O] showed an inhibition at 0.001 µM of 31%.
